Assay results taken from ChEMBL document CHEMBL4513161, “CO-ADD screening of MMV (CH) - Pandemic Response Box” (2021).
Converted amounts (≈) assume the structure as drawn. Counter-ions that a name gives are not always drawn.

Tests used:
Pseudomonas aeruginosa [1] = assay: Antibacterial activity against Pseudomonas aeruginosa PAO397 [PAO1 d(mexAB-oprM) d(mexCD-oprJ) d(mexEF-oprN) d(mexJKL) d(mexXY) d(opmH)] (CO-ADD:GN_211); MIC in CAMBH media using NBS plates, by OD(600); assay type: functional; settings: ASSAY_TEST Inhibition of Bacterial Growth, detection method Absorption (OD600), MEDIA CAMHB, plate type 384well, CORNING #3640, time 18 hr
Staphylococcus aureus = assay: microbe, parasite or virus in culture; settings: ATCC 43300, 18 h, ASSAY_TEST Inhibition of Bacterial Growth, detection method Absorption (OD600), MEDIA CAMHB, plate type 384well, NBS, CORNING #3640
Description: Antibacterial activity against Staphylococcus aureus MRSA ATCC 43300 (CO-ADD:GP_020); MIC in CAMBH media, using NBS plates, by OD(600)

Pseudomonas aeruginosa [2] = assay: microbe, parasite or virus in culture; settings: ATCC 27853, 18 h, ASSAY_TEST Inhibition of Bacterial Growth, detection method Absorption (OD600), MEDIA CAMHB, plate type 384well, NBS, CORNING #3640
Description: Antibacterial activity against Pseudomonas aeruginosa ATCC 27853 (CO-ADD:GN_042); MIC in CAMBH media using NBS plates, by OD(600)

Klebsiella pneumoniae = assay: microbe, parasite or virus in culture; settings: ATCC 700603, 18 h, ASSAY_TEST Inhibition of Bacterial Growth, detection method Absorption (OD600), MEDIA CAMHB, plate type 384well, NBS, CORNING #3640
Description: Antibacterial activity against Klebsiella pneumoniae MDR ATCC 70063 (CO-ADD:GN_003); MIC in CAMBH media using NBS plates, by OD(600)

Candida albicans = assay: microbe, parasite or virus in culture; settings: ATCC 90028, ASSAY_TEST Inhibition of Fungal Growth, detection method Absorption (OD530), plate type 384well, NBS, CORNING #3640
Description: Antifungal activity against Candida albicans ATCC 90028 (CO-ADD:FG_001); MIC in YNB media using NBS plates, by OD630

Acinetobacter baumannii = assay: microbe, parasite or virus in culture; settings: ATCC 19606, 18 h, ASSAY_TEST Inhibition of Bacterial Growth, detection method Absorption (OD600), MEDIA CAMHB, plate type 384well, NBS, CORNING #3640
Description: Antibacterial activity against Acinetobacter baumannii ATCC 19606 (CO-ADD:GN_034); MIC in CAMBH media using NBS plates, by OD600

Escherichia coli = assay: microbe, parasite or virus in culture; settings: ATCC 25922, 18 h, ASSAY_TEST Inhibition of Bacterial Growth, detection method Absorption (OD600), MEDIA CAMHB, plate type 384well, NBS, CORNING #3640
Description: Antibacterial activity against Escherichia coli ATCC 25922 (CO-ADD:GN_001); MIC in CAMBH media using NBS plates, by OD(600)

HEK293 = assay: cells; assay type: functional, Homo sapiens, ATCC CRL1573; settings: Homo sapiens, ATCC CRL1573, HEK293; ASSAY_TEST Inhibition of Cell Viability; detection method Resazurin; Fluorescence (ex560/em590); MEDIA DMEM with 10% FBS; plate type 384well; TC; CORNING #3712; time 18 hr; read-out: CC50

Description for Cryptococcus neoformans: Antifungal activity against Cryptococcus neoformans H99 ATCC 208821 (CO-ADD:FG_002); MIC in YNB media using NBS plates, by Resazurin OD(600-570)

SMILES | MIC (Pseudomonas aeruginosa [1]) [µM] | MIC (Staphylococcus aureus) [µM] | MIC (Pseudomonas aeruginosa [2]) [µM] | MIC (Klebsiella pneumoniae) [µM] | MIC (Candida albicans) [µM] | MIC (Acinetobacter baumannii) [µM] | MIC (Escherichia coli) [µM] | MIC (Cryptococcus neoformans) [µM] | CC50 (HEK293) [µM]
c1cnc(NCc2ccc(CNc3ncccn3)cc2)nc1 [MSX-122] | > 20 | > 20 | > 20 | > 20 | > 20 | > 20 | > 20 | > 20 | > 20
CC1CCc2c(N3CCC(O)CC3)c(F)cc3c(=O)c(C(=O)O)cn1c23 (stereo not drawn) [NADIFLOXACIN] | ≤ 0.156 | ≤ 0.156 | 1.25 (≈ 0.45 µg/mL) | 20 (≈ 7.21 µg/mL) | > 20 | 20 (≈ 7.21 µg/mL) | 0.625 (≈ 0.225 µg/mL) | > 20 | > 20
[N-]=[N+]=N[C@H]1C[C@H](n2ccc(=O)[nH]c2=O)O[C@@H]1CO [NAVURIDINE] | > 20 | > 20 | > 20 | > 20 | > 20 | > 20 | > 20 | > 20 | > 20
FC(F)(F)Oc1ccc(Nc2ccc3cccc(Cl)c3n2)cc1 [OBEFAZIMOD] | > 20 | > 20 | > 20 | > 20 | > 20 | > 20 | > 20 | > 20 | > 20
Cc1cc(-c2ccccc2)c(C(=O)C(=O)Nc2ccc(N3CCN(c4ncc(F)cn4)CC3)cc2)n1C [OLOROFIM] | > 20 | > 20 | > 20 | > 20 | > 20 | > 20 | > 20 | > 20 | > 20
O[C@@](Cn1cnnn1)(c1ccc(F)cc1F)C(F)(F)c1ccc(-c2ccc(OCC(F)(F)F)cc2)cn1 [OTESECONAZOLE] | > 20 | > 20 | > 20 | > 20 | ≤ 0.156 | > 20 | > 20 | 0.625 (≈ 0.33 µg/mL) | > 20
COC(=O)Nc1nc2cc([S+]([O-])c3ccccc3)ccc2[nH]1 (stereo not drawn) [OXFENDAZOLE] | > 20 | > 20 | > 20 | > 20 | > 20 | > 20 | > 20 | > 20 | > 20
CC(C)Oc1ccc(-c2nc(-c3cccc4c3CC[C@@H]4NCCO)no2)cc1C#N [OZANIMOD] | > 20 | > 20 | > 20 | > 20 | > 20 | > 20 | > 20 | > 20 | > 20
CONC(=N)c1ccc(-c2ccc(-c3ccc(C(=N)NOC)cc3)o2)cc1 [PAFURAMIDINE] | > 20 | > 20 | > 20 | > 20 | > 20 | > 20 | > 20 | > 20 | > 20
COc1ccc(COc2cc3oc(=O)c4cc(C(C)O)ccc4c3cc2OC)cc1 (stereo not drawn) [PALOMID-529] | > 20 | > 20 | > 20 | > 20 | > 20 | > 20 | > 20 | > 20 | > 20
Cc1[nH]c2ccccc2c1CCNCc1ccc(/C=C/C(=O)NO)cc1 [PANOBINOSTAT] | > 20 | > 20 | > 20 | > 20 | > 20 | > 20 | > 20 | > 20 | > 20
Nc1nc2c(Cc3cccnc3)c[nH]c2c(=O)[nH]1 [PELDESINE] | > 20 | > 20 | > 20 | > 20 | > 20 | > 20 | > 20 | > 20 | > 20
CC[C@@H]1C(=O)OC[C@@H]1Cc1cncn1C [PILOCARPINE HYDROCHLORIDE] | > 20 | > 20 | > 20 | > 20 | > 20 | > 20 | > 20 | > 20 | > 20
O=C(O)[C@H]1C2CCC(CC2)[C@@H]1Nc1nc(-c2c[nH]c3ncc(F)cc23)ncc1F [PIMODIVIR] | > 20 | > 20 | > 20 | > 20 | > 20 | > 20 | > 20 | > 20 | > 20

Further lines, with some results ahead:

MIC (Pseudomonas aeruginosa [1]) [µM] | MIC (Staphylococcus aureus) [µM] | MIC (Pseudomonas aeruginosa [2]) [µM] | MIC (Klebsiella pneumoniae) [µM] | MIC (Candida albicans) [µM] | MIC (Acinetobacter baumannii) [µM] | MIC (Escherichia coli) [µM] | MIC (Cryptococcus neoformans) [µM] | SMILES | CC50 (HEK293) [µM]
> 20 | > 20 | > 20 | > 20 | > 20 | > 20 | > 20 | > 20 | CN(C)CC(=O)Nc1ccc2[nH]c(=O)c3ccccc3c2c1 [PJ34] | > 20
> 20 | > 20 | > 20 | > 20 | > 20 | > 20 | > 20 | > 20 | Cc1cc(CCCOc2c(C)cc(-c3noc(C(F)(F)F)n3)cc2C)on1 [PLECONARIL] | > 20
> 20 | > 20 | > 20 | > 20 | > 20 | > 20 | > 20 | > 20 | c1cc(CN2CCCNCCNCCCNCC2)ccc1CN1CCCNCCNCCCNCC1 [PLERIXAFOR] | > 20
> 20 | > 20 | > 20 | > 20 | > 20 | > 20 | > 20 | > 20 | O=[N+]([O-])c1cn2c(n1)OC[C@@H](OCc1ccc(OC(F)(F)F)cc1)C2 [PRETOMANID] | > 20
> 20 | > 20 | > 20 | > 20 | > 20 | > 20 | > 20 | > 20 | NC(=O)c1cnccn1 [PYRAZINAMIDE] | > 20
> 20 | > 20 | > 20 | > 20 | ≤ 0.156 | > 20 | > 20 | 0.312 (≈ 0.137 µg/mL) | C[C@@H](c1nc(-c2ccc(C#N)cc2)cs1)[C@](O)(Cn1cncn1)c1ccc(F)cc1F [RAVUCONAZOLE] | > 20
> 20 | > 20 | > 20 | > 20 | > 20 | > 20 | > 20 | > 20 | CCOCc1nc2c(N)nc3ccccc3c2n1CC(C)(C)O [RESIQUIMOD] | > 20
2.5 (≈ 1.29 µg/mL) | ≤ 0.156 | > 20 | > 20 | > 20 | > 20 | > 20 | > 20 | C=C[C@]1(C)C[C@@H](OC(=O)CS[C@@H]2C[C@H]3CC[C@@H](C2)N3C)[C@]2(C)[C@H](C)CC[C@]3(CCC(=O)[C@H]32)[C@@H](C)[C@@H]1O [RETAPAMULIN] | > 20
> 20 | > 20 | > 20 | > 20 | > 20 | > 20 | > 20 | > 20 | Cc1nc(Nc2ccc(F)cc2)nc(N2CCc3ccccc3C2C)c1C (stereo not drawn) [REVAPRAZAN] | > 20
> 20 | > 20 | > 20 | > 20 | > 20 | > 20 | > 20 | > 20 | CC(N)C12CC3CC(CC(C3)C1)C2 (stereo not drawn) [RIMANTADINE HYDROCHLORIDE] | > 20
> 20 | > 20 | > 20 | > 20 | > 20 | > 20 | > 20 | > 20 | COc1ccc(C2CNC(=O)C2)cc1OC1CCCC1 (stereo not drawn) [ROLIPRAM] | > 20
> 20 | > 20 | > 20 | > 20 | > 20 | > 20 | > 20 | > 20 | CC[C@@]1(O)C(=O)OCc2c1cc1n(c2=O)Cc2cc3c([N+](=O)[O-])cccc3nc2-1 [RUBITECAN] | 0.695
> 20 | > 20 | > 20 | > 20 | > 20 | > 20 | > 20 | > 20 | OCCC#Cc1nc(-c2ccc(F)cc2)c(-c2ccncc2)n1CCCc1ccccc1 [RWJ-67657] | > 20
